Results reported in US9675681B2, “Shortened purification process for the production of capsular Streptococcus pneumoniae polysaccharides” (priority 2007, dated 2017).

Key:
R6X = experiment: Microtiter plate lysis assay, strain R6X (wild type lytA); format: cell-based, S. pneumoniae; details: compound 0.1%, 15 min at 36° C.
Source text: (§1) Mitrotiter Assay: A rapid microtiter plate assay was devised for examining lytA-dependent lysis of pneumococci by different detergents or surfactants. Two pairs of isogenic strains of S. pneumoniae were used in the assay; one member of each pair was wild type for the lytA gene while the other strain carried a deletion in the lytA gene Thus, if lysis were dependent on an active lytA function, that detergent would not lyse the mutant strains. The four strains, R6X, R6X ΔlytA, D39 and D39 ΔlytA, were cultivated in HySoy medium to approximately mid-log phase (OD600˜0.2-0.8; OD600=Optical Density at 600 nm). Cells were then centrifuged and cell pellets were resuspended in HySoy medium. To each well of the microtiter plate, 100 μL, of cell suspension was added, along with 10 μL, of detergent stocks or water as a control. After about 15 minutes at 36° C., the OD600 of the samples was measured with a Spectramax® spectrophotometer (Molecular Devices, Sunnyvale, Calif.).
(§2) Isogenic pairs of strains containing the lytA mutation were grown in a Hy-Soy based medium. The cells were harvested and dispensed into wells in a microttiter plate. The test compound was added and the culture was incubated. After 15 min at 36° C., the optical density (OD600) of each well was determined using a SpectraMax® plate reader (Molecular Devices, Sunnyvale, CALIF.)(see Tables 17 and 18, which summarize results from two separate tests for exemplary compounds).

R6X ΔlytA = experiment: Microtiter plate lysis assay, strain R6X ΔlytA; format: cell-based, S. pneumoniae; details: compound 0.1%, 15 min at 36° C.
Source text: as §1, §2

D39 = experiment: Microtiter plate lysis assay, strain D39 (wild type lytA); format: cell-based, S. pneumoniae; details: compound 0.1%, 15 min at 36° C.
Protocol: as §1, with “Two pairs of isogenic strains of S. pneumoniae were used in the assay; one member of each pair was wild type for the lytA gene while the other strain carried a deletion in the lytA gene Thus, if lysis were dependent on an active lytA function, that detergent would not lyse the mutant strains.” left out
(§3) Isogenic pairs of strains containing the lytA mutation were grown in a Hy-Soy based medium. The cells were harvested and dispensed into wells in a microttiter plate. The test compound was added and the culture was incubated.

D39 ΔlytA = experiment: Microtiter plate lysis assay, strain D39 ΔlytA; format: cell-based, S. pneumoniae; details: compound 0.1%, 15 min at 36° C.
Source text: as §1, §2

[1] = system: Wild-type cells (R6X, D39); experiment: Microtiter plate lysis assay, wild-type cells; format: cell-based, S. pneumoniae; details: freshly prepared or frozen and thawed cells; about 15 minutes at 36° C.
Source text: as §1

[2] = system: ΔlytA cells (R6X ΔlytA, D39 ΔlytA); experiment: Microtiter plate lysis assay, ΔlytA cells; format: cell-based, S. pneumoniae; details: freshly prepared or frozen and thawed cells; about 15 minutes at 36° C.
Source text: as §1

[3] = system: Streptococcus pneumoniae cells; experiment: Screening for non-animal derived lytic agents (serotypes 1 and 6B PS release by SEC-HPLC; lytA mutants); format: cell-based; details: screening studies with serotypes 1 and 6B and lytA mutants
Protocol: Cell Lysis: Compounds to be tested were added to fermentation broth at a final concentration of 0.1 to 0.01% (v/v) and the solution was allowed to incubate at 37° C. for one hour. The solution was then stored at 2-8° C. overnight. The following morning the solution was centrifuged to remove all cell debris. The cell-free broth was analyzed by SEC-HPLC to determine the concentration of released polysaccharide. The lysis could be performed at any temperature between 2-37° C., preferably at a pH range of 6.0-7.5. The concentration of the detergent was typically between 0.05-0.2% depending on the particular detergent.
S. pneumoniae serotypes 1 and 6B were separately grown in Hy-Soy based media. The cultures were separately harvested and separately dispensed into tubes. […] After overnight incubation, the tubes were centrifuged and the PS content of the lysates for each serotype were determined by SEC-HPLC and compared to DOC.
as §3

C[C@H](CCC(=O)O)[C@H]1CC[C@H]2[C@@H]3CC[C@@H]4C[C@H](O)CC[C@]4(C)[C@H]3C[C@H](O)[C@]12C [Deoxycholic acid]
Change in OD600, R6X (R6X; Test 1): 100%
Change in OD600, R6X (R6X; Test 2): 103%
Change in OD600, R6X ΔlytA (R6X ΔlytA; Test 1): 34%
Change in OD600, R6X ΔlytA (R6X ΔlytA; Test 2): 20%
Change in OD600, D39 (D39; Test 1): 99%
Change in OD600, D39 (D39; Test 2): 101%
Change in OD600, D39 ΔlytA (D39 ΔlytA; Test 1): 47%
Change in OD600, D39 ΔlytA (D39 ΔlytA; Test 2): 41%

CCCCCCC(=O)O [Heptanoic acid]
Change in OD600, R6X (R6X; Test 1): 25%
Change in OD600, R6X ΔlytA (R6X ΔlytA; Test 1): −57%
Change in OD600, D39 (D39; Test 1): 7%
Change in OD600, D39 ΔlytA (D39 ΔlytA; Test 1): −30%

C[C@H](CCC(=O)O)[C@H]1CC[C@H]2[C@@H]3CC[C@@H]4C[C@H](O)CC[C@]4(C)[C@H]3CC[C@]12C [Lithocholic acid]
Change in OD600, R6X (R6X; Test 1): 20%
Change in OD600, R6X ΔlytA (R6X ΔlytA; Test 1): 16%
Change in OD600, D39 (D39; Test 1): 8%
Change in OD600, D39 ΔlytA (D39 ΔlytA; Test 1): −2%

CCCCCCCCCCCCN(C)CC(=O)O [N-lauryl sarcosine]
Change in OD600, R6X (R6X; Test 1): 100%
Change in OD600, R6X (R6X; Test 2): 102%
Change in OD600, R6X ΔlytA (R6X ΔlytA; Test 1): −34%
Change in OD600, R6X ΔlytA (R6X ΔlytA; Test 2): −40%
Change in OD600, D39 (D39; Test 1): 89%
Change in OD600, D39 (D39; Test 2): 101%
Change in OD600, D39 ΔlytA (D39 ΔlytA; Test 1): −44%
Change in OD600, D39 ΔlytA (D39 ΔlytA; Test 2): 14%
Lysis of wild-type cells (OD600 versus medium blank) [1]: lysis had occurred
Lysis of ΔlytA cells [2]: did not lyse
Lytic activity compared to DOC (outcome of the screening studies) [3]: non-animal derived lytic agent alternatives to DOC

CCCCCCCCS(=O)(=O)O [Octanesulfonic acid]
Change in OD600, R6X (R6X; Test 1): 43%
Change in OD600, R6X (R6X; Test 2): 13%
Change in OD600, R6X ΔlytA (R6X ΔlytA; Test 1): 6%
Change in OD600, R6X ΔlytA (R6X ΔlytA; Test 2): 3%
Change in OD600, D39 (D39; Test 1): 34%
Change in OD600, D39 (D39; Test 2): 18%
Change in OD600, D39 ΔlytA (D39 ΔlytA; Test 1): 16%
Change in OD600, D39 ΔlytA (D39 ΔlytA; Test 2): −3%

CCCCCCCCCCCCOS(=O)(=O)[O-].[Na+] [SDS, sodium dodecyl sulfate]
Change in OD600, R6X (R6X; Test 1): 99%
Change in OD600, R6X (R6X; Test 2): 102%
Change in OD600, R6X ΔlytA (R6X ΔlytA; Test 1): 28%
Change in OD600, R6X ΔlytA (R6X ΔlytA; Test 2): −13%
Change in OD600, D39 (D39; Test 1): 95%
Change in OD600, D39 (D39; Test 2): 100%
Change in OD600, D39 ΔlytA (D39 ΔlytA; Test 1): 36%
Change in OD600, D39 ΔlytA (D39 ΔlytA; Test 2): 16%
Lysis of wild-type cells (OD600 versus medium blank) [1]: lysis had occurred
Lysis of ΔlytA cells [2]: did not lyse
Lytic activity compared to DOC (outcome of the screening studies) [3]: non-animal derived lytic agent alternatives to DOC

CCCCCCCC/C=C\CCCCCCCC(=O)OCCOCC(OCCO)C1OCC(OCCO)C1OCCO (centres unmarked) [Tween 80]
Change in OD600, R6X (R6X; Test 1): 36%
Change in OD600, R6X ΔlytA (R6X ΔlytA; Test 1): 14%
Change in OD600, D39 (D39; Test 1): 20%
Change in OD600, D39 ΔlytA (D39 ΔlytA; Test 1): 19%

C[C@H](CCC(=O)O)[C@H]1CC[C@H]2[C@@H]3[C@H](O)C[C@@H]4C[C@H](O)CC[C@]4(C)[C@H]3CC[C@]12C [chenodeoxycholate]
Lytic activity compared to DOC (outcome of the screening studies) [3]: non-animal derived lytic agent alternatives to DOC

C[C@H](CCC(=O)O)[C@H]1CC[C@H]2[C@@H]3[C@H](O)C[C@@H]4C[C@H](O)CC[C@]4(C)[C@H]3C[C@H](O)[C@]12C [cholate]
Lytic activity compared to DOC (outcome of the screening studies) [3]: non-animal derived lytic agent alternatives to DOC

CCCCCCCCCCS(=O)(=O)O [decanesulfonic acid]
Lytic activity compared to DOC (outcome of the screening studies) [3]: non-animal derived lytic agent alternatives to DOC

C[C@H](CCC(=O)NCC(=O)O)[C@H]1CC[C@H]2[C@@H]3CC[C@@H]4C[C@H](O)CC[C@]4(C)[C@H]3C[C@H](O)[C@]12C [glycodeoxycholate]
Lytic activity compared to DOC (outcome of the screening studies) [3]: non-animal derived lytic agent alternatives to DOC

C[C@H](CCC(=O)O)[C@H]1CC[C@H]2[C@@H]3C[C@H](O)[C@@H]4C[C@H](O)CC[C@]4(C)[C@H]3CC[C@]12C [hyodeoxycholate]
Lytic activity compared to DOC (outcome of the screening studies) [3]: non-animal derived lytic agent alternatives to DOC

CCCCCCCCCCCCN(CCC(=O)O)CCC(=O)O [lauryl iminodipropionate]
Lytic activity compared to DOC (outcome of the screening studies) [3]: non-animal derived lytic agent alternatives to DOC

C[C@H](CCC(=O)NCCS(=O)(=O)O)[C@H]1CC[C@H]2[C@@H]3[C@H](O)C[C@@H]4C[C@H](O)CC[C@]4(C)[C@H]3CC[C@]12C [taurochenodeoxycholate]
Lytic activity compared to DOC (outcome of the screening studies) [3]: non-animal derived lytic agent alternatives to DOC

C[C@H](CCC(=O)NCCS(=O)(=O)O)[C@H]1CC[C@H]2[C@@H]3CC[C@@H]4C[C@H](O)CC[C@]4(C)[C@H]3C[C@H](O)[C@]12C [taurodeoxycholate]
Lytic activity compared to DOC (outcome of the screening studies) [3]: non-animal derived lytic agent alternatives to DOC

Tauroglycocholic acid
Change in OD600, R6X (R6X; Test 1): 51%
Change in OD600, R6X ΔlytA (R6X ΔlytA; Test 1): −16%
Change in OD600, D39 (D39; Test 1): 47%
Change in OD600, D39 ΔlytA (D39 ΔlytA; Test 1): −20%

Triton ® X-100
Change in OD600, R6X (R6X; Test 1): 91%
Change in OD600, R6X (R6X; Test 2): 101%
Change in OD600, R6X ΔlytA (R6X ΔlytA; Test 1): 22%
Change in OD600, R6X ΔlytA (R6X ΔlytA; Test 2): −19%
Change in OD600, D39 (D39; Test 1): 97%
Change in OD600, D39 (D39; Test 2): 100%
Change in OD600, D39 ΔlytA (D39 ΔlytA; Test 1): 30%
Change in OD600, D39 ΔlytA (D39 ΔlytA; Test 2): 4%
Lysis of wild-type cells (OD600 versus medium blank) [1]: lysis had occurred
Lysis of ΔlytA cells [2]: did not lyse
Lytic activity compared to DOC (outcome of the screening studies) [3]: non-animal derived lytic agent alternatives to DOC

tert-Octylphenoxy poly(oxyethylene)ethanol [Igepal® CA-630]
Lytic activity compared to DOC (outcome of the screening studies) [3]: non-animal derived lytic agent alternatives to DOC
